Data published in patent US11179397B2, “Imidazopyrimidine derivatives” (Gilead Sciences, Inc., priority 2018, dated 2021).
pEC50, pIC50: −log10 of the molar value.

Key:
[1] = tested on: NCI-H358 cells; experiment: NCI-H358 3D tumor spheroid growth inhibition; type: cell-based; conditions: Homo sapiens, NCI-H358, 168 h, 3D spheroids, 7 days, 3D CellTiter Glo; cellular IC50 designated EC50; read-out: H358 EC50
Description: SHP-2 Cell Based Assay: […] Materials NCI-H358 cell line was purchased from [NT] number ATCC CRL-5807) (Manassas, Va.). RPMI-1640 (Catalog number 10-040-CM) was from Corning Cellgro (Manassas, Va.), Fetal Bovine Serum (FBS) (Catalog number SH30071.03) was from HyClone (Logan, Utanh), and 100× Penicillin/Streptomycin/L-Glutamine stock (Catalog no. 30-009-CI) and 384-well ULA plates (Catalog number 3830) were from Corning (Fremont, Calif.). Method […] At the day of assay, the cells were trypsinized and seeded at 1000 cells/70 μl/well in 384-well ULA plates and incubated at 37° C. incubator with 5% CO2 to allow spheroids to form. […] The plates were incubated for additional 7 days. Then 35 μl of medium from each well was removed, and replaced with 35 μl of 3D CellTiter Glo reagent from Promega. The wells were mixed by pipetting up and down with Biomek FX for 15 times to induce cell lysis and the plates were incubated at room temperature for additional 10 min to stabilize luminescent signal. The luminescence was then read by Envision. The inhibitor dose response curves were generated using normalized cellular IC50 (designated as EC50 in all FIGURES to distinguish from biochemical IC50s) by in house dose response analyses tools. The wells with DMSO vehicle were used as negative controls (0% inhibition). The % inhibition of SHP-2 compounds was calculated as: 100-[(Compound well luminescence counts/DMSO luminescence counts)×100%].

[2] = target: SHP-2 full length protein (Homo sapiens (Human), UniProt Q06124); experiment: SHP-2 biochemical DiFMUP pseudosubstrate-fluorogenic assay; conditions: 0.2 nM SHP-2, 1 μM IRS-1 activator peptide, 50 μM DiFMUP; read-out: SHP2 IC50
SHP-2 full length protein, sequence (Q06124 whole entry): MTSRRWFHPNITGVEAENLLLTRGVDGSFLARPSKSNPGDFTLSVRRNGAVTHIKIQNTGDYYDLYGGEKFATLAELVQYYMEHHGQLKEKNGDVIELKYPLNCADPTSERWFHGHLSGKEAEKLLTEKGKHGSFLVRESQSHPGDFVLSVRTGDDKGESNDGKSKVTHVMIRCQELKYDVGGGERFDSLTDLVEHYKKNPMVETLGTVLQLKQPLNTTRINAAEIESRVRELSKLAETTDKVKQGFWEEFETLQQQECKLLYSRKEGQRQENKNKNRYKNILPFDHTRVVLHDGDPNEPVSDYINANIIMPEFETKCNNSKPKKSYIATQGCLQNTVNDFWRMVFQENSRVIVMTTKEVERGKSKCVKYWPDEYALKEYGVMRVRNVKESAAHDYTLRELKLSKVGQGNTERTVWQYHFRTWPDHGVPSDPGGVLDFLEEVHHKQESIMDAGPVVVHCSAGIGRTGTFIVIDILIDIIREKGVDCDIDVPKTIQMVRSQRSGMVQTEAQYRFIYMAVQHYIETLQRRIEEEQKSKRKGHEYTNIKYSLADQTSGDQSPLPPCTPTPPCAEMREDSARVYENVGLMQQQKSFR
Experimental: SHP-2 Biochemical Assay Materials Recombinant SHP-2 full length protein was generated in house. SHP-2 protein tyrosine phosphatase (PTP) domain protein (Catalog number SPR0217-20 ug), NaCl (Catalog number S6546-1L), and KCl (Catalog number 60142-500 mL) were purchased from Sigma-Aldrich (St. Louis, Mo.). IRS-1_[…](dPEG8)[…] peptide […]) was custom made by AnaSpec (Fremont, Calif.). DiFMUP substrate (Catalog number D6567), EDTA (Catalog number E177-500 mL), DTT (Catalog number P2325), and 384-well black polystyrene non-binding surface (Catalog number 3820) were purchased from Fisher Scientific (Hanover Park, Ill.). HEPES (Catalog number 15630-080) was purchased from Life Technologies (Pleasanton, Calif.), and Tween-20 (Catalog number 95059-250) was purchased from VWR (Radnor, Pa.). Method Inhibition of SHP-2 activity by small molecule inhibitors was monitored by a biochemical DiFMUP pseudosubstrate-fluorogenic assay. […] The reaction mix was added to the 384-well non-binding plate which had been pre-spotted with 1:3 serial diluted compounds from 10,000-0.005 nM, and incubated at room temperature for 90 min. DiFMUP substrate at final concentration of 50 μM was then added to the wells and incubated for additional 30 min at room temperature. The final reaction volume was 20 μl/well. […] The inhibitor dose response curves were generated using normalized IC50 regression curve fitting by in house dose response analysis tools. The wells with DMSO vehicle were used as controls (100% signal). The percent (%) control of SHP-2 compound was calculated as: (Compound well fluorescence counts/DMSO fluorescence counts)×100%.

Nc1nccc(Sc2cnc(N3CCC4(CCC[C@H]4N)CC3)n3ccnc23)c1Cl [Example 45, (R)-8-(8-((2-amino-3-chloropyridin-4-yl)thio)imidazo[1,2-c]pyrimidin-5-yl)-8-azaspiro[4.5]decan-1-amine] was tested, and the pEC50 [1] was 6.77 and the pIC50 [2] was 8.25.

In the case of N[C@@H]1CCCC12CCN(c1ncc(Sc3ccnc(Cl)c3Cl)c3nccn13)CC2 [Example 46, (R)-8-(8-((2,3-dichloropyridin-4-yl)thio)imidazo[1,2-c]pyrimidin-5-yl)-8-azaspiro[4.5]decan-1-amine], the pEC50 [1] was 7.51 and the pIC50 [2] was 8.51.

With Cc1nccc(Sc2cnc(N3CCC4(CCC[C@H]4N)CC3)n3ccnc23)c1Cl [Example 47, (R)-8-(8-((3-chloro-2-methylpyridin-4-yl)thio)imidazo[1,2-c]pyrimidin-5-yl)-8-azaspiro[4.5]decan-1-amine] the pEC50 [1] was 6.82 and the pIC50 [2] was 8.12.

CC1(N)CCN(c2ncc(Sc3cccc(Cl)c3Cl)c3nccn23)CC1 [Example 48, 1-(8-((2,3-dichlorophenyl)thio)imidazo[1,2-c]pyrimidin-5-yl)-4-methylpiperidin-4-amine] showed a pEC50 [1] of 5.77 and a pIC50 [2] of 6.92.

For N[C@@H]1CCCC12CCN(c1ncc(-c3cccc(Cl)c3Cl)c3nccn13)CC2 [Example 52, (R)-8-(8-(2,3-dichlorophenyl)imidazo[1,2-c]pyrimidin-5-yl)-8-azaspiro[4.5]decan-1-amine], the pEC50 [1] was < 4.90 and the pIC50 [2] was 6.55.

C[C@@H]1OCC2(CCN(c3ncc(Sc4cccc(Cl)c4Cl)c4nccn34)CC2)[C@@H]1N [Example 55, (3S,4S)-8-(8-((2,3-dichlorophenyl)thio)imidazo[1,2-c]pyrimidin-5-yl)-3-methyl-2-oxa-8-azaspiro[4.5]decan-4-amine] gave a pEC50 [1] of 7.31 and a pIC50 [2] of 8.82.

NC1CCCN(c2ncc(Sc3cccc(Cl)c3Cl)c3nccn23)CC1 (stereo not shown) [Example 56, 1-(8-((2,3-dichlorophenyl)thio)imidazo[1,2-c]pyrimidin-5-yl)azepan-4-amine] was tested, and the pEC50 [1] was 6.00 and the pIC50 [2] was 7.12.

In the case of Clc1cccc(Sc2cnc(N3CCC4(CCCCN4)CC3)n3ccnc23)c1Cl [Example 57, 9-(8-((2,3-dichlorophenyl)thio)imidazo[1,2-c]pyrimidin-5-yl)-1,9-diazaspiro[5.5]undecane], the pEC50 [1] was < 4.90 and the pIC50 [2] was 6.30.

Molecule NC1CC2(CCN(c3ncc(Sc4cccc(Cl)c4Cl)c4nccn34)C2)C1 (stereo not shown) [Example 58, 6-(8-((2,3-dichlorophenyl)thio)imidazo[1,2-c]pyrimidin-5-yl)-6-azaspiro[3.4]octan-2-amine] has a pEC50 [1] of 5.36 and a pIC50 [2] of 6.47.

For CC1(N)CCN(c2ncc(Sc3cccc(Cl)c3Cl)c3nncn23)CC1 [Example 61, 1-(8-((2,3-dichlorophenyl)thio)-[1,2,4]triazolo[4,3-c]pyrimidin-5-yl)-4-methylpiperidin-4-amine], the pEC50 [1] was 5.64 and the pIC50 [2] was 6.89.

For CC1(N)CCN(c2ncc(Sc3cccc(Cl)c3Cl)c3ncnn23)CC1 [Example 62, 1-(8-((2,3-dichlorophenyl)thio)-[1,2,4]triazolo[1,5-c]pyrimidin-5-yl)-4-methylpiperidin-4-amine], the pEC50 [1] was < 4.90 and the pIC50 [2] was 5.89.

In the case of Nc1nccc(Sc2cnc(N3CCC4(CCC[C@H]4N)CC3)n3cnnc23)c1Cl [Example 63, (R)-8-(8-((2-amino-3-chloropyridin-4-yl)thio)-[1,2,4]triazolo[4,3-c]pyrimidin-5-yl)-8-azaspiro[4.5]decan-1-amine], the pEC50 [1] was 6.24 and the pIC50 [2] was 7.89.

For Cc1nc(N2CCC3(CCC[C@H]3N)CC2)n2cnnc2c1-c1cnc(N)c(Cl)c1Cl [Example 66, (R)-8-(8-(6-amino-4,5-dichloropyridin-3-yl)-7-methyl-[1,2,4]triazolo[4,3-c]pyrimidin-5-yl)-8-azaspiro[4.5]decan-1-amine], the pEC50 [1] was 5.54 and the pIC50 [2] was 6.85.

Cc1nc(N2CCC3(CC2)CO[C@@H](C)[C@H]3N)n2cnnc2c1-c1cccc(Cl)c1Cl [Example 67, (3S,4S)-8-(8-(2,3-dichlorophenyl)-7-methyl-[1,2,4]triazolo[4,3-c]pyrimidin-5-yl)-3-methyl-2-oxa-8-azaspiro[4.5]decan-4-amine] showed a pEC50 [1] of 7.00 and a pIC50 [2] of 8.19.

Cc1nc(N2CCC3(CC2)C[C@@H](O)C[C@H]3N)n2cnnc2c1-c1cccc(Cl)c1Cl [Example 68, (2R,4R)-4-amino-8-(8-(2,3-dichlorophenyl)-7-methyl-[1,2,4]triazolo[4,3-c]pyrimidin-5-yl)-8-azaspiro[4.5]decan-2-ol] gave a pEC50 [1] of 6.36 and a pIC50 [2] of 8.03.

In the case of N[C@@H]1CCCC12CCN(c1nc(Cl)c(-c3cccc(Cl)c3Cl)c3nccn13)CC2 [Example 69, (R)-8-(7-chloro-8-(2,3-dichlorophenyl)imidazo[1,2-c]pyrimidin-5-yl)-8-azaspiro[4.5]decan-1-amine], the pEC50 [1] was 7.07 and the pIC50 [2] was 8.51.

N[C@@H]1CCCC12CCN(c1ncc(Sc3cncc4ccccc34)c3nccn13)CC2 [Example 70, (R)-8-(8-(isoquinolin-4-ylthio)imidazo[1,2-c]pyrimidin-5-yl)-8-azaspiro[4.5]decan-1-amine] was tested, and the pEC50 [1] was 5.41 and the pIC50 [2] was 6.17.

C[C@@H]1OCC2(CCN(c3ncc(Oc4cccc(Cl)c4Cl)c4nccn34)CC2)[C@@H]1N [Example 71, (3S,4S)-8-(8-(2,3-dichlorophenoxy)imidazo[1,2-c]pyrimidin-5-yl)-3-methyl-2-oxa-8-azaspiro[4.5]decan-4-amine] was tested, and the pEC50 [1] was 5.85 and the pIC50 [2] was 6.92.

With N[C@@H]1CCCC12CCN(c1ncc(Nc3cccc(Cl)c3Cl)c3nccn13)CC2 [Example 72, (R)-8-(8-((2,3-dichlorophenyl)amino)imidazo[1,2-c]pyrimidin-5-yl)-8-azaspiro[4.5]decan-1-amine] the pEC50 [1] was < 4.90 and the pIC50 [2] was 5.70.

Cc1nc(N2CCC3(CCC[C@H]3N)CC2)n2ccnc2c1-c1ccc2cn[nH]c2c1 [Example 73, (R)-8-(8-(1H-indazol-6-yl)-7-methylimidazo[1,2-c]pyrimidin-5-yl)-8-azaspiro[4.5]decan-1-amine] gave a pEC50 [1] of 6.26 and a pIC50 [2] of 7.52.

In the case of Cc1nc(N2CCC3(CCC[C@H]3N)CC2)n2ccnc2c1-c1ccc2c(c1)OC(F)(F)O2 [Example 74, (R)-8-(8-(2,2-difluorobenzo[d][1,3]dioxol-5-yl)-7-methylimidazo[1,2-c]pyrimidin-5-yl)-8-azaspiro[4.5]decan-1-amine], the pEC50 [1] was < 4.90 and the pIC50 [2] was 6.07.

Cc1nc(N2CCC3(CC2)C[C@@H](O)C[C@H]3N)n2ccnc2c1Sc1cccc(Cl)c1Cl [Example 75, (2R,4R)-4-amino-8-(8-((2,3-dichlorophenyl)thio)-7-methylimidazo[1,2-c]pyrimidin-5-yl)-8-azaspiro[4.5]decan-2-ol] was tested, and the pEC50 [1] was 7.32 and the pIC50 [2] was 8.41.

Cc1nc(N2CCC3(CC2)CO[C@@H](C)[C@H]3N)n2ccnc2c1Sc1cccc(Cl)c1Cl [Example 76, (3S,4S)-8-(8-((2,3-dichlorophenyl)thio)-7-methylimidazo[1,2-c]pyrimidin-5-yl)-3-methyl-2-oxa-8-azaspiro[4.5]decan-4-amine] showed a pEC50 [1] of 7.23 and a pIC50 [2] of 8.48.

Work on N[C@@H]1CCCC12CCN(c1ncc(Sc3ccc4cn[nH]c4c3)c3nccn13)CC2 [Example 77, (R)-8-(8-((1H-indazol-6-yl)thio)imidazo[1,2-c]pyrimidin-5-yl)-8-azaspiro[4.5]decan-1-amine] yielded a pEC50 [1] of 5.51 and a pIC50 [2] of 6.74.

N[C@@H]1CCCC12CCN(c1ncc(Sc3ccnc4ccccc34)c3nccn13)CC2 [Example 78, (R)-8-(8-(quinolin-4-ylthio)imidazo[1,2-c]pyrimidin-5-yl)-8-azaspiro[4.5]decan-1-amine] was tested, and the pEC50 [1] was 7.02 and the pIC50 [2] was 8.23.

With N[C@@H]1CCCC12CCN(c1ncc(SC3CCCCC3)c3nccn13)CC2 [Example 79, (R)-8-(8-(cyclohexylthio)imidazo[1,2-c]pyrimidin-5-yl)-8-azaspiro[4.5]decan-1-amine] the pEC50 [1] was < 4.90 and the pIC50 [2] was 5.28.
